Measured values from ChEMBL document CHEMBL1201862, “PubChem BioAssay data set” (2004).
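Growth conditions: 96-well plates. Treatment: test compound, 48 hours, 5 concentrations. Analysis: linear interpolation between bracketing concentrations; unreached endpoints set to highest concentration. At the GI50, growth is halved.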 The source made the active and inactive calls. Cut-off read from the data, not from the text of the source: active = GI50 up to about 1.1 µM and inactive = higher.

Assays:
Experiment in all cases: NCI tumour cell line growth inhibition, 48 h
[1] = tested on: 786-0
[2] = tested on: BT-549
[3] = tested on: SK-OV-3
[4] = tested on: SW-620
[5] = tested on: NCI-H226
[6] = tested on: SK-MEL-28
[7] = tested on: SK-MEL-2
[8] = tested on: CAKI-1
[9] = tested on: UACC-62
[10] = tested on: IGROV-1
[11] = tested on: T47D
[12] = tested on: LOX IMVI
[13] = tested on: SN12C
[14] = tested on: MDA-N
[15] = tested on: A549
[16] = tested on: SF-539
[17] = tested on: MDA-MB-231
[18] = tested on: MOLT-4
[19] = tested on: HL-60

Measured: GI50

CC1OC(O)C(O)C(O)C1O (centres undefined)
inactive: [1] > 100 µM | [2] > 100 µM | [3] > 100 µM | [4] > 100 µM | [5] > 100 µM | [6] > 100 µM | [7] > 100 µM | [8] > 100 µM | [9] > 100 µM | [10] > 100 µM | [11] > 100 µM | [12] > 100 µM | [13] > 100 µM | [14] > 100 µM | [15] > 100 µM | [16] > 100 µM | [17] > 100 µM

OCCCCCCCCCCCOc1ccc(C2OCC3(CO2)COC(c2ccc(OCCCCCCCCCCCO)cc2)OC3)cc1 (centres undefined)
inactive: [1] > 50 µM | [2] > 50 µM | [3] > 50 µM | [4] > 50 µM | [5] 29.6 µM | [6] > 50 µM | [7] > 50 µM | [8] > 50 µM | [9] > 50 µM | [18] > 50 µM | [10] > 50 µM | [11] > 50 µM | [12] > 50 µM | [13] > 50 µM | [14] > 50 µM | [15] > 50 µM | [16] > 50 µM | [17] > 50 µM

CC[C@H](C)[C@H]1NC(=O)[C@@H](NC(=O)[C@@H](CC(C)C)N(C)C(=O)C2CCCN2C(=O)[C@H](C)O)[C@@H](C)OC(=O)[C@H](Cc2ccc(OC)cc2)N(C)C(=O)[C@@H]2CCCN2C(=O)[C@H](CCCCNC(=O)OCc2ccccc2)NC(=O)[C@H](C)C(=O)[C@H](C(C)C)OC(=O)C[C@@H]1O (some centres undefined)
inactive: [1] 5.56 µM | [2] 7.93 µM | [3] 7.69 µM | [4] 7.74 µM | [5] 12.7 µM | [6] 12.2 µM | [7] 1.96 µM | [8] 16.8 µM | [9] 8.2 µM | [19] > 25 µM | [18] 4.79 µM | [10] 7.74 µM | [11] 7.67 µM | [12] 7.4 µM | [13] 5.64 µM | [14] 5.68 µM | [15] 3.9 µM | [16] 12.8 µM

CCOP(=O)(OCC)/C(C#N)=C/c1cccn1CC(C)C
inactive: [1] > 100 µM | [2] > 100 µM | [3] > 100 µM | [4] > 100 µM | [5] 35.7 µM | [6] > 100 µM | [7] > 100 µM | [8] > 100 µM | [9] > 100 µM | [18] 52.5 µM | [10] > 100 µM | [11] 36.6 µM | [12] > 100 µM | [13] > 100 µM | [14] > 100 µM | [15] > 100 µM | [16] > 100 µM | [17] 57.3 µM

COC(=O)c1ccccc1Nc1nc(-c2cccs2)nc2cc(OC)c(OC)cc12
inactive: [1] 38.8 µM | [2] > 100 µM | [3] 55.7 µM | [4] > 100 µM | [5] 23.4 µM | [6] > 100 µM | [7] 64.7 µM | [8] 39.4 µM | [9] 52.6 µM | [19] > 100 µM | [18] 57.9 µM | [10] 14.7 µM | [11] 37 µM | [12] 39.4 µM | [13] 48.5 µM | [15] 54 µM | [16] 27.4 µM | [17] 28.9 µM

COc1cccc2c1OC(c1ccc(Cl)cc1)C([N+](=O)[O-])=C2 (centres undefined)
inactive: [1] 1.84 µM | [2] 1.24 µM | [3] 3.57 µM | [6] 2.61 µM | [8] 3.48 µM | [9] 1.74 µM | [19] > 100 µM | [18] 1.49 µM | [10] 2.25 µM | [11] 2.34 µM | [12] 1.2 µM | [13] 2.35 µM | [14] 1.42 µM | [15] 9.82 µM | [17] 3.52 µM

CC(C)(C)O/C=C1/C(=O)OC2C[C@@H](O[Si](C)(C)C(C)(C)C)CC12 (some centres undefined)
inactive: [1] > 100 µM | [2] 56.5 µM | [3] > 100 µM | [4] 54.3 µM | [5] 92.7 µM | [6] > 100 µM | [7] > 100 µM | [8] > 100 µM | [10] 72.6 µM | [11] 23.3 µM | [12] 36.6 µM | [13] 34.7 µM | [14] > 100 µM | [15] 58.9 µM | [17] > 100 µM

O=C(Oc1ccc2c(c1)CN(Cc1ccccc1)CO2)c1ccccc1
inactive: [1] 16.9 µM | [2] 18.5 µM | [3] 16.6 µM | [4] 22.8 µM | [6] 21.4 µM | [7] 22 µM | [8] 20 µM | [9] 16.8 µM | [18] 10.7 µM | [10] 13.3 µM | [11] 21.7 µM | [12] 17.1 µM | [13] 17.1 µM | [14] 16.8 µM | [15] 19.8 µM | [16] 17.3 µM | [17] 19.2 µM

O=[N+]([O-])C(=C(Nc1cccc2cccnc12)Nc1cccc2cccnc12)C(Cl)=C(Cl)Cl
inactive: [1] > 71.3 µM | [2] 30.1 µM | [3] > 100 µM | [4] 66.7 µM | [5] 63.1 µM | [6] > 56.9 µM | [8] > 49.9 µM | [9] 77.1 µM | [18] 74.1 µM | [10] 3.98 µM | [11] 29.1 µM | [12] 50.4 µM | [13] > 55.1 µM | [14] 31.7 µM | [15] > 79.8 µM | [16] > 100 µM | [17] 7.35 µM

CS(=O)(=O)N(CC(=O)O)Cc1ccccc1
inactive: [1] > 100 µM | [2] > 100 µM | [3] > 100 µM | [4] > 100 µM | [5] > 100 µM | [6] > 100 µM | [7] > 100 µM | [8] > 100 µM | [9] > 100 µM | [18] > 100 µM | [10] > 100 µM | [11] > 100 µM | [12] > 100 µM | [13] > 100 µM | [14] > 100 µM | [15] > 100 µM | [16] > 100 µM | [17] > 100 µM

CC1(C)C2CCC1(CC(=O)O)C(Cl)C2 (centres undefined)
inactive: [1] > 100 µM | [2] > 100 µM | [3] > 100 µM | [4] > 100 µM | [5] > 100 µM | [6] > 100 µM | [7] > 100 µM | [8] > 100 µM | [9] > 100 µM | [19] > 100 µM | [18] > 100 µM | [10] > 100 µM | [11] > 100 µM | [12] > 100 µM | [13] > 100 µM | [15] > 100 µM | [16] > 100 µM | [17] > 100 µM
